From patent publication US12583855B2, “RET selective inhibitor, preparation method therefor and use thereof” (SHOUYAO HOLDINGS (BEIJING) CO., LTD., priority 2019, dated 2026)
Positions count from the first letter of the chain named.

Assays:
RET^WT = target: T1, RET^WT (Homo sapiens, UniProt P07949); assay: In vitro enzymatic activity assay on RET^WT (HTRF); type: biochemical; conditions: GST-RET^WT (658-1114 aa) 0.5 nM, ATP 25 μM
T1 construct: GST-RET^WT (658-1114 aa, final concentration of 0.5 nM)
T1 sequence (P07949 658-1114): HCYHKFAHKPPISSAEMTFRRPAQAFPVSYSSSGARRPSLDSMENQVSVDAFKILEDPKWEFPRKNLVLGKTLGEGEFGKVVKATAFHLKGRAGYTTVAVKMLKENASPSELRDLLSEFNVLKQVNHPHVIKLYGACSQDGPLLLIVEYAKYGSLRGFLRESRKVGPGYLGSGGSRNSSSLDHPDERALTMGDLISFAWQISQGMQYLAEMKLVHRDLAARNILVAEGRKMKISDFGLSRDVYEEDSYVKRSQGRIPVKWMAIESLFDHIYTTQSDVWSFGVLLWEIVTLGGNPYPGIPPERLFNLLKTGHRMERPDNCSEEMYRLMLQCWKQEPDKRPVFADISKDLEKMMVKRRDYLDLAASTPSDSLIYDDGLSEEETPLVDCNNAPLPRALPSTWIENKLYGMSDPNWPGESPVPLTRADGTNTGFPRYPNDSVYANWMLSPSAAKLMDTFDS
Method: 1. In Vitro Enzymatic Activity Assay for Compounds on RET^WT
The compounds were diluted 5-fold with 100% DMSO starting from 0.2 mM (7 concentrations in total), and 2 μL of each concentration was added to 48 μL of reaction buffer (50 mM HEPES pH7.5, 0.1 mM Na3VO4, 5 mM MgCl2. 1 mM DTT, 0.001% Tween 20, and 100 μg/ml BSA) for dilution and mixing.
The 384-well plate was placed in an incubator and reacted at 23° C. for 2 h before the reaction was stopped by the addition of 5 μL of TK Antibody (purchased from Cisbio) and 5 μL of Streptavidin-XL665 (purchased from Cisbio). […] The enzymatic activity signal of RET^WT was measured at 7 concentrations for each compound and the data were calculated using GraphPad Prism software to obtain the IC50 value for the compound.

RET^V804M = target: T2, RET^V804M (Homo sapiens, UniProt P07949, V804M); assay: In vitro enzymatic activity assay on RET^V804M (HTRF); type: biochemical; conditions: GST-RET^V804M (658-1114 aa) 0.02 nM, ATP 1.5 μM
T2 construct: GST-RET^V804M (658-1114 aa, final concentration of 0.02 nM)
T2 sequence (P07949 658-1114 V804M): T1 sequence (P07949 658-1114) with V147M

TT cells = assay: TT cell proliferation activity (Cell-Titer Glo); type: cell-based; conditions: TT human thyroid carcinoma cells, 120 h
Method: 4. Determination of TT Cell Proliferation Activity of Compounds
TT cells, a human thyroid carcinoma cell line, were cultured in Ham's F-12K medium supplemented with 15% fetal bovine serum (FBS, purchased from Biological Industries, BI) and 1% penicillin/streptomycin double antibody (P/S, purchased from Life Technology) under conditions of 37° C. and 5% CO2. TT cells were plated in a 96-well plate (#3917 purchased from Corning) at a concentration of 5000 cells/195 μL/well the day before compound was detected. The compounds were diluted 3-fold with 100% DMSO starting from 10 mM (10 concentrations in total) after 24 h, and 2 μL of each concentration was diluted in 48 μL of Ham's F-12K medium. 5 μL of each diluted compound was added to the plated Cell suspension, the compound and cells were co-incubated in a cell incubator for 120 h (5 days), after the medium was aspirated. 25 μL of Cell-Titer Glo (G7570, purchased from Promega) reagent was added and re-incubated for 5-10 min. Fluorescence value was then read on Envision and the data were calculated using GraphPad Prism software to obtain IC50 values for inhibition of cell proliferation by the compounds.

VEGFR2 = VEGFR2 (Homo sapiens, UniProt P35968); assay: In vitro enzymatic activity assay on VEGFR2 (HTRF); type: biochemical; conditions: GST-VEGFR2 0.1 nM, ATP 2.5 μM
Sequence of VEGFR2 (P35968 20-1356): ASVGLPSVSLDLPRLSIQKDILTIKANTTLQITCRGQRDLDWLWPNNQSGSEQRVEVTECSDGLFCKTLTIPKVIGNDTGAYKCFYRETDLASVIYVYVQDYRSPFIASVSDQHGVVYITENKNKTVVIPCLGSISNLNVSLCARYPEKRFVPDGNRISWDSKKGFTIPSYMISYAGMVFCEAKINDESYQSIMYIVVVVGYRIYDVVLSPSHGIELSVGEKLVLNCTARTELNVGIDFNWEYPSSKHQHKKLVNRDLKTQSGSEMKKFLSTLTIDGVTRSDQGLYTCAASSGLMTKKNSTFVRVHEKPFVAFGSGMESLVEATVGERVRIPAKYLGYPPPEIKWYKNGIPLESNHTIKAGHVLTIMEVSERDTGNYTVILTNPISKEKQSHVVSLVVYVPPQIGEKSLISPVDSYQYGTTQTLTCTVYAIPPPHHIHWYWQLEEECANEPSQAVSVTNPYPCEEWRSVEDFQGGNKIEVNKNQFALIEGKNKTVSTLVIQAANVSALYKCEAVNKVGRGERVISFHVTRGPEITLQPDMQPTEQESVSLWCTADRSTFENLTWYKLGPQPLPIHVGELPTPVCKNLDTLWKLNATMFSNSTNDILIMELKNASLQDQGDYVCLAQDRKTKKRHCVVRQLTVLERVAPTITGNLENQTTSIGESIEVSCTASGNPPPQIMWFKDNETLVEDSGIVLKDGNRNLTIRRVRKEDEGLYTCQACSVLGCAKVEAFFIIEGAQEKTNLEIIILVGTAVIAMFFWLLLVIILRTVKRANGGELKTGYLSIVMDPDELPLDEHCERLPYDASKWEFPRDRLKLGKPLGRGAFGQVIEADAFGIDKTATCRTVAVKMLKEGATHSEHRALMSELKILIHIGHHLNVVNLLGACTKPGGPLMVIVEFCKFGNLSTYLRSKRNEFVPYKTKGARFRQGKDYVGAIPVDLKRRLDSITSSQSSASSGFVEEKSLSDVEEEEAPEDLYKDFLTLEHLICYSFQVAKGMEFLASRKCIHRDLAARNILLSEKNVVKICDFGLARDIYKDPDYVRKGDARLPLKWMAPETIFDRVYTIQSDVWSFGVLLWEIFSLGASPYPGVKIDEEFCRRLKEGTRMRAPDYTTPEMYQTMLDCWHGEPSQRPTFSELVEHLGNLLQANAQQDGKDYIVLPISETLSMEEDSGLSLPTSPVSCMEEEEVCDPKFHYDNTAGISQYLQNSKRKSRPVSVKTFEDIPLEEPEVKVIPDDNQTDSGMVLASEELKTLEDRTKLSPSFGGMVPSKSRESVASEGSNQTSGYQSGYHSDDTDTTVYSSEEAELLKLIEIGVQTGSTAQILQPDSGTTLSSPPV
Method: 3. n Vitro Enzymatic Activity Assay for Compounds on VEGFR2
The compounds were diluted 5-fold with 100% DMSO starting from 1 mM (7 concentrations in total), and 2 μL of each concentration was added to 48 μL of reaction buffer (50 mM HEPES pH 7.5, 0.1 mM Na3VO4, 5 mM MgCl2, 1 mM MnCl2, 1 mM DTT, 0.001% Tween 20, and 100 μg/ml BSA) for dilution and mixing. 2.5 μL of compounds and 5 μL of GST-VEGFR2 (final concentration of 0.1 nM) were added to a 384-well plate (OptiPlate-384, purchased from PerkinElmer), the mixture was mixed by centrifugation, and 2.5 μL of ATP (final concentration of 2.5 μM) and TK Peptide Substrate mixture (final concentration of 1 μM, purchased from Cisbio) were added to start the reaction, with a total reaction volume of 10 μL. The 384-well plate was placed in an incubator and reacted at 23° C. for 1.5 h before the reaction was stopped by the addition of 5 μL of TK Antibody (purchased from Cisbio) and 5 μL of Streptavidin-XL665 (purchased from Cisbio). After further incubation in the incubator for 1 h. fluorescence values (excitation at 320 nm, detecting emitted light at 665 nm and 620 nm, and a ratio of the two as an enzyme activity signal) were read on Envision (purchased from PerkinElmer). The enzymatic activity signal of VEGFR2 was measured at 7 concentrations for each compound and the data were calculated using GraphPad Prism software to obtain the IC50 value for the compound.

[1] = Pharmacokinetic data of compounds in male SD rats; type: in vivo; conditions: rat, po, intragastric, 5 mg/kg, suspension MC 0.5%, plasma
Method: 6. Pharmacokinetic Data of Compounds
Male SD rats (Beijing Vital River Laboratory Animal Technology Co., Ltd) were divided into groups. 3 in each group, received intragastric administration with the suspension of the test sample (5 mg/kg, suspensions MC 0.5%), respectively. Animals were fasted overnight prior to the experiment from 10 h before dosing to 4 h after dosing. Blood was collected 0.25, 0.5, 1, 2, 4, 6, 8, and 24 h after administration, respectively. After isoflurane anesthesia using a small animal anesthesia machine, 0.3 mL of whole blood samples was taken through the fundus venous plexus, placed in a heparin anticoagulant tube, and were centrifuged at 4° C. 4000 rpm for 5 min plasma was transferred to the centrifuge tube, and stored at −80° C. until analysis. Samples in the plasma were extracted using protein precipitation and the extracts were analyzed by LC/MS.

Compound | IC50 (RET^WT) [nM] | IC50 (RET^V804M) [nM] | IC50 (VEGFR2) [nM] | IC50 (TT cells) [nM] | AUC(0-inf) [1] [ng·h/mL] | Cmax [1] [ng/mL] | Tmax [1] [h] | half-life [1] [h]
Cn1cc(-c2cc(-c3ccc(N4CCN(C(=O)C5=CCCC5)CC4)nc3)c3c(C#N)cnn3c2)cn1 [Example 2, 4-(6-(4-(cyclopent-1-ene-1-carbonyl)piperazin-1-yl)pyridin-3-yl)-6-(1-methyl-1Hpyrazol-4-yl)pyrazolo[1,5-a]pyridine-3-carbonitrile] | 0.108 | 0.906 | 13.4 | 26.1 |  |  |  | 
COc1ccc(CN2C3CC2CN(c2cnc(-c4cc(-c5cnn(C)c5)cn5ncc(C#N)c45)cn2)C3)cn1 [Example 3, 4-(5-(6-((6-methoxypyridin-3-yl)methyl)-3,6-diazabicyclo[3.1.1]heptan-3-yl)pyrazin-2-yl)-6-(1-methyl-1Hpyrazol-4-yl) pyrazolo[1,5-a]pyridine-3-carbonitride] |  |  | 3.01 | 1.01 |  |  |  | 
Cn1cc(-c2cc(-c3cnc(N4CC5CC(C4)N5Cc4ccc(S(C)(=O)=O)cc4)cn3)c3c(C#N)cnn3c2)cn1 [Example 41, 6-(1-methyl-1Hpyrazol-4-yl)-4-(5-(6-(4-(methylsulfonyl)benzyl)-3,6-diazabicyclo[3.1.1]heptan-3-yl)pyrazin-2-yl)pyrazolo[1,5-a]pyridine-3-carbonitrile] | 0.352 | 1.04 | 17.3 | 18.2 |  |  |  | 
COc1ccc(CN2C3CC2CN(c2ccc(-c4cc(N5CC(F)(F)C5)cn5ncc(C#N)c45)cn2)C3)nc1 [Example 46, 6-(3,3-difluoroazetidin-1-yl)-4-(6-(6-((5-methoxypyridin-2-yl)methyl)-3,6-diazabicyclo [3.1.1]heptan-3-yl)pyridin-3-yl) pyrazolo[1,5-a]pyridine-3-carbonitrile] | 0.159 |  | 17.2 | 37.6 |  |  |  | 
CS(=O)(=O)c1ccc(CN2C3CC2CN(c2ccc(-c4cc(-c5cnn(C(F)(F)F)c5)cn5ncc(C#N)c45)cn2)C3)cc1 [Example 84, 4-(6-(6-(4-(methylsulfonyl)benzyl)-3,64-diazabicyclo[3.1.1]heptan-3-yl)pyridin-3-yl)-6-(1-(trifluoromethyl)-1Hpyrazol-4-yl) pyrazolo[1,5-a] pyridine-3-carbonitrile] | 0.309 |  | 13.3 |  | 27300 | 3090 | 2 | 2.78

Now from value to molecule, other results behind:

IC50 (RET^WT) [nM] | IC50 (RET^V804M) [nM] | IC50 (VEGFR2) [nM] | Compound | IC50 (TT cells) [nM] | AUC(0-inf) [1] [ng·h/mL] | Cmax [1] [ng/mL] | Tmax [1] [h] | half-life [1] [h]
0.332 | 1.25 | 8.91 | CC1=C(C(=O)N2CCN(c3ccc(-c4cc(-c5cnn(C)c5)cn5ncc(C#N)c45)cn3)CC2)CCC1 [Example 6, 6-(1-methyl-1Hpyrazol-4-yl)-4-(6-(4-(2-methylcyclopent-1-ene-1-carbonyl)piperazin-1-yl)pyridin-3-yl)pyrazolo[1,5-a]pyridine-3-carbonitrile] | 13.8 |  |  |  | 
 |  | 11.9 | CSCCN1CCN(c2ccc(-c3cc(-c4cnn(C)c4)cn4ncc(C#N)c34)cn2)CC1 [Example 21, 6-(1-methyl-1Hpyrazol-4-yl)-4-(6-(4-(2-(methylthio)ethyl)piperazin-1-yl)pyridin-3-yl)pyrazolo[1,5-a]pyridine-3-carbonitrile] | 27.9 |  |  |  | 
0.422 |  | 95.5 | COc1ccc(CN2CCN(c3ccc(-c4cc(N5CC(F)(F)C5)cn5ncc(C#N)c45)cn3)CC2)cn1 [Example 26, 6-(3,3-difluoroazetidin-1-yl)-4-(6-(4-((6-methoxypyridin-3-yl)methyl)piperazin-1-yl)pyridin-3-yl)pyrazolo[1,5-a]pyridine-3-carbonitrile] |  | 45000 | 6000 | 1.75 | 4.9
0.8 | 3.19 | 29.1 | COc1ccc(CN2CCN(c3ccc(-c4cc(N5CC(C#N)C5)cn5ncc(C#N)c45)cn3)CC2)cn1 [Example 32, 6-(3-cyanoazetidin-1-yl)-4-(6-(4-((6-methoxypyridin-3-yl)methyl)piperazin-1-yl)pyridin-3-yl)pyrazolo[1,5-a]pyridine-3-carbonitrile] | 48.7 |  |  |  | 
0.642 |  | 42.5 | Cn1cc(-c2cc(-c3cnc(N4CCN(Cc5ccc(S(C)(=O)=O)cc5)CC4)cn3)c3c(C#N)cnn3c2)cn1 [Example 42, 6-(1-methyl-1Hpyrazol-4-yl)-4-(5-(4-(4-(methylsulfonyl)benzyl)piperazin-1-yl)pyrazin-2-yl)pyrazolo[1,5-a]pyridine-3-carbonitrile] | 47.9 |  |  |  | 
0.753 | 5.89 | 65.4 | CSc1ccc(CN2C3CCC2CN(c2ccc(-c4cc(-c5cnn(C(F)F)c5)cn5ncc(C#N)c45)cn2)C3)cn1 [Example 73, 6-(1-(difluoromethyl)-1Hpyrazol-4-yl)-4-(6-(8-((6-(methylthio)pyridin-3-yl)methyl)-3,8-diazabicyclo[3.2.1]octan-3-yl)pyridin-3-yl)pyrazolo[1,5-a]pyridine-3-carbonitrile] |  |  |  |  | 
0.676 | 4.19 | 14.4 | CSc1cccc(CN2C3CC2CN(c2ccc(-c4cc(-c5cnn(C(F)F)c5)cn5ncc(C#N)c45)cn2)C3)n1 [Example 74, 6-(1-(difluoromethyl)-1Hpyrazol-4-yl)-4-(6-(6-((6-(methylthio)pyridin-2-yl)methyl)-3,6-diazabicyclo[3.1.1]heptan-3-yl)pyridin-3-yl)pyrazolo[1,5-a]pyridine-3-carbonitrile] |  |  |  |  | 
